PMC6039432, “A small-molecule inhibitor of SOD1-Derlin-1 interaction ameliorates pathology in an ALS mouse model” (Nature Communications, 2018)
pIC50, pKd: −log10 of the molar value.

How the values were obtained:
[1] = biological target: T1, SOD1-Derlin-1 complex (Flag-SOD1 / Derlin-1-HA) (Homo sapiens, UniProt P00441, G94A); test: in vitro co-immunoprecipitation of purified complex, immunoblot; assay type: biochemical
T1 construct: Flag-SOD1 G93A and Derlin-1-HA co-expressed in HEK293A; complex purified on anti-Flag beads for the in vitro assay, or assayed in cells; all tags kept; with Derlin-1

[2] = biological target: T2, SOD1 (GST-SOD1 / Flag-SOD1; WT or G93A) (Homo sapiens, UniProt P00441, G94A); test: fluorescence polarization (intrinsic fluorescence of compound); assay type: binding
T2 construct: full length; GST fusion from pGEX-6P-1 in E. coli BL21, eluted with glutathione (tag apparently kept), loaded with CuSO4 and ZnCl2 (described for activity assay); Flag-tagged in HEK293A for pull-down
T2 sequence (P00441 2-154 G94A): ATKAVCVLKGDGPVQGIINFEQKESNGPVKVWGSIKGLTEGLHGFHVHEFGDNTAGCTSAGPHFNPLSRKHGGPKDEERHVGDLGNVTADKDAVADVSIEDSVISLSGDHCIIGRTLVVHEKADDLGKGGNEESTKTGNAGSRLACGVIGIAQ

T1 sequence (P00441 2-154 G94A): as above
T1 sequence (Q9BUN8 2-251 partner): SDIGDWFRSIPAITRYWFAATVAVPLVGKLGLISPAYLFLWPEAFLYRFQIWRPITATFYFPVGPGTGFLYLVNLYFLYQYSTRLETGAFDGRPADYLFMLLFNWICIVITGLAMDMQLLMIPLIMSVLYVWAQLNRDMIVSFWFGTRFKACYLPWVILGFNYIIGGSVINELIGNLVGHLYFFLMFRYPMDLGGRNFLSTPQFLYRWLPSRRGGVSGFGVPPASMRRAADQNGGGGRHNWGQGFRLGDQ

| pIC50 [1] | pKd [2] | Compound |
| --- | --- | --- |
| 5.15 | 4.09 | Nc1c(C(=O)Nc2ccc(Br)cc2Br)sc2nc(-c3cccnc3)ccc12 [#56-20] |
| 5.21 |  | Nc1c(C(=O)Nc2ccc(Cl)cc2Cl)sc2nc(-c3cccnc3)ccc12 [#56-26] |
| 4.63 |  | Nc1c(C(=O)Nc2ccc3c(c2)OCO3)sc2nc(-c3cccnc3)ccc12 [#56] |
